According to ChEMBL document CHEMBL1201862, “PubChem BioAssay data set” (2004):
Calls of active or inactive are those of the source. For most assays here, no stated cut-off is given here; in the data, actives have a measured EC50 and inactives only a lower limit.

Legend:
[1] = target: NACHT, LRR and PYD domains-containing protein 1 (Homo sapiens, UniProt Q9C000); assay: NALP1 inhibitors in yeast, dose response, luminescent (AID 488860); type: functional
[2] = tested on: Saccharomyces cerevisiae; assay: NALP1 inhibitor project selectivity study, Caspase-1/ASC signal blockade IC50 in S. cerevisiae (AID 488863); type: functional, organism-based
[3] = target: T1, Ubiquitin-conjugating enzyme E2 N (Homo sapiens, UniProt P61088); type: functional;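 further: Dose-response confirmation in a TR-FRET assay detecting UBC13-driven polyubiquitin chain formation, inhibition measured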
T1 sequence (P61088 whole entry): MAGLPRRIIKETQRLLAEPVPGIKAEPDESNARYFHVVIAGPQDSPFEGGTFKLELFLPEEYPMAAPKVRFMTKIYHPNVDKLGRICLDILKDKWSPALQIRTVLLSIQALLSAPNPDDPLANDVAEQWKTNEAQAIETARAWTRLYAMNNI

[4] = cytotoxicity toward DRD oncogenic fibroblasts, dose response, cell-based, non-viral oncogenic, luminescence (AID 1934); type: functional; conditions: Homo sapiens
[5] = tested on: BJ; assay: cytotoxicity toward BJ-TERT-LT-ST fibroblasts, dose response, cell-based, RAS-independent, luminescence (AID 1935); type: functional; conditions: Homo sapiens;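 further: BJ fibroblasts immortalized with TERT plus LT and ST oncogenes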
[6] = cells; type: functional, cell-based
[7] = tested on: BJ; assay: cytotoxicity toward BJ-TERT fibroblasts, dose response, cell-based, RAS-independent, luminescence (AID 1933); type: functional; conditions: Homo sapiens
[8] = tested on: J774.A1; assay: Confirmation of image-based Screening Assay for Inhibitors of Phagocytosis. [Related pubchem assays (depositor defined):AID1029, AID1643]; type: functional, cell-based; conditions: Mus musculus
[9] = luciferase reporter signal reduction – luminescence, H4-C neuroglioblastoma cells, dose response (AID 2458); type: functional, cell-based;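 further: H4 neuroglioblastoma cells stably carrying a luciferase reporter gene fusion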
[10] = Luminescence Cell-Based Dose Response HTS to Identify Inhibitors of 5'UTR Stem-Loop Driven Prion Protein mRNA Translation in H4 Neuroglioblastoma Cells. [Related pubchem assays: 1827 (Project Summary), 1813 (Primary HTS)]; type: functional
[11] = inhibitors of SNCA 5'UTR-driven reporter translation, confirmation, H4 neuroglioma cells, luminescence (AID 1988); type: functional, cell-based
[12] = inhibitors of firefly luciferase expression or activity, dose response, H4 neuroglioma cells, luminescence (AID 1990); type: functional, cell-based
[13] = tested on: BJ; assay: cells; type: functional, cell-based; conditions: Homo sapiens
[14] = inhibitors of SNCA 5'UTR-driven translation, confirmation, luminescence, H4 neuroglioblastoma cells, dose confirmation (AID 2454); type: functional, cell-based;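 further: H4 neuroglioblastoma cells carrying an alpha-synuclein 5'UTR luciferase reporter; potency for inhibition of the luciferase signal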
[15] = target: Nonstructural protein 1 (Influenza A virus, UniProt Q194T2); type: functional, Influenza A virus (A/California/07/2009(H1N1))
Sequence of Nonstructural protein 1 (Q194T2 whole entry): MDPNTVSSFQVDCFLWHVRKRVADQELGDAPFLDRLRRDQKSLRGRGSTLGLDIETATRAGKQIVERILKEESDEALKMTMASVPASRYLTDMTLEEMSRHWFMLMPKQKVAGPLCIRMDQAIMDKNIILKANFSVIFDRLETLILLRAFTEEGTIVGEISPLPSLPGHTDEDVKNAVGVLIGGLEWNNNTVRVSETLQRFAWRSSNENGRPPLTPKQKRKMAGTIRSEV

[16] = target: Female germline-specific tumor suppressor gld-1 (Caenorhabditis elegans, UniProt Q17339); assay: inhibitors of GLD-1 binding to TGE RNA, dose response, biochemical, fluorescence polarization, C. elegans (AID 2802);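 further: fluorescence polarization of labeled TGE RNA bound by purified gld-1 protein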
Sequence of Female germline-specific tumor suppressor gld-1 (Q17339 whole entry): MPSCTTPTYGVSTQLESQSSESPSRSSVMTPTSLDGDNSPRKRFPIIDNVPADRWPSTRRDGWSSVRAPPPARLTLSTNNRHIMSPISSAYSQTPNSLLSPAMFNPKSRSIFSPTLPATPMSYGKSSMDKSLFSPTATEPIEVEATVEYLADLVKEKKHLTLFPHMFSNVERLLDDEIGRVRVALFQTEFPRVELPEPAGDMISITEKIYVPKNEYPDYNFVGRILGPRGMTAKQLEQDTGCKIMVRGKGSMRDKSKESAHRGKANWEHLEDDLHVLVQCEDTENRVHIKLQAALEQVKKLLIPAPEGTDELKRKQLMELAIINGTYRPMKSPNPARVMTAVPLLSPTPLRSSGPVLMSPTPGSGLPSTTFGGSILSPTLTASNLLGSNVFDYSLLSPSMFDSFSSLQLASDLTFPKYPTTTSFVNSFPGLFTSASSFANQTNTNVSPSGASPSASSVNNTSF

[17] = target: Protein Rev (Human immunodeficiency virus type 1 group M subtype B (isolate HXB2)(HIV-1), UniProt P04618); assay: inhibitors of Rev binding to RRE RNA, dose response, biochemical, fluorescence polarization, HIV-1 (AID 434976); parameters: species or system Human immunodeficiency virus 1
Sequence of Protein Rev (P04618 whole entry): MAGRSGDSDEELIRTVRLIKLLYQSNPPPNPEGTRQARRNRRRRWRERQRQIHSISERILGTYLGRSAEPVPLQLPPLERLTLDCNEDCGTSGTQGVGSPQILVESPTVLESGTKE

[18] = target: T2, Short transient receptor potential channel 4 (Mus musculus, UniProt Q9QUQ5); assay: mouse TRPC4 channel activators, dose response, cell-based, HEK293 TRPC4/mu-opioid, Fluo-4 calcium (AID 434937); type: functional
T2 sequence (Q9QUQ5 whole entry): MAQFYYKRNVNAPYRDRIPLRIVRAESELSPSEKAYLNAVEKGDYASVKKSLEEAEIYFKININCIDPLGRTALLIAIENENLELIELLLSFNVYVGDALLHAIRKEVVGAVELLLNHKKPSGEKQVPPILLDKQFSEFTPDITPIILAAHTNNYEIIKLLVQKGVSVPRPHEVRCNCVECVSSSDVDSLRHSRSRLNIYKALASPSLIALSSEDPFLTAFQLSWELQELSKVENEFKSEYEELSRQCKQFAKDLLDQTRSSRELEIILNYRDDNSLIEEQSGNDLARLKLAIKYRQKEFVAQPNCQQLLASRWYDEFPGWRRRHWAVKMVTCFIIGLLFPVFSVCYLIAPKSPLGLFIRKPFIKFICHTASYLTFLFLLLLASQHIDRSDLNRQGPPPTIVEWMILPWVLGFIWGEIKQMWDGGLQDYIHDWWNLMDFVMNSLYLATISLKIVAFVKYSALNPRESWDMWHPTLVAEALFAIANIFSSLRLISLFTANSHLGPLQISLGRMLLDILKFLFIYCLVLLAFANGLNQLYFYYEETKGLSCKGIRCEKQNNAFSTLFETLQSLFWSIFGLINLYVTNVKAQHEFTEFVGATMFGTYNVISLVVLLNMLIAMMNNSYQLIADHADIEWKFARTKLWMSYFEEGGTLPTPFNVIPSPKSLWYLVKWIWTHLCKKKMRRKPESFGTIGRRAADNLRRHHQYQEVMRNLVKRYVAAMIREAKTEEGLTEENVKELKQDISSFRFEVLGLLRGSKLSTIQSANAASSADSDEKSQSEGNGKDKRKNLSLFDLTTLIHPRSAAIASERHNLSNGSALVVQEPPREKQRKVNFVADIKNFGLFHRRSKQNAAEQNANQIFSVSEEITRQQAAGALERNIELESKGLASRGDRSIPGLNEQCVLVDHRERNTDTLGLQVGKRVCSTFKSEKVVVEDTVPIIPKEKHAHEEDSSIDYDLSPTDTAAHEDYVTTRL

Sequence of NACHT, LRR and PYD domains-containing protein 1 (Q9C000 1-1212 limits assumed): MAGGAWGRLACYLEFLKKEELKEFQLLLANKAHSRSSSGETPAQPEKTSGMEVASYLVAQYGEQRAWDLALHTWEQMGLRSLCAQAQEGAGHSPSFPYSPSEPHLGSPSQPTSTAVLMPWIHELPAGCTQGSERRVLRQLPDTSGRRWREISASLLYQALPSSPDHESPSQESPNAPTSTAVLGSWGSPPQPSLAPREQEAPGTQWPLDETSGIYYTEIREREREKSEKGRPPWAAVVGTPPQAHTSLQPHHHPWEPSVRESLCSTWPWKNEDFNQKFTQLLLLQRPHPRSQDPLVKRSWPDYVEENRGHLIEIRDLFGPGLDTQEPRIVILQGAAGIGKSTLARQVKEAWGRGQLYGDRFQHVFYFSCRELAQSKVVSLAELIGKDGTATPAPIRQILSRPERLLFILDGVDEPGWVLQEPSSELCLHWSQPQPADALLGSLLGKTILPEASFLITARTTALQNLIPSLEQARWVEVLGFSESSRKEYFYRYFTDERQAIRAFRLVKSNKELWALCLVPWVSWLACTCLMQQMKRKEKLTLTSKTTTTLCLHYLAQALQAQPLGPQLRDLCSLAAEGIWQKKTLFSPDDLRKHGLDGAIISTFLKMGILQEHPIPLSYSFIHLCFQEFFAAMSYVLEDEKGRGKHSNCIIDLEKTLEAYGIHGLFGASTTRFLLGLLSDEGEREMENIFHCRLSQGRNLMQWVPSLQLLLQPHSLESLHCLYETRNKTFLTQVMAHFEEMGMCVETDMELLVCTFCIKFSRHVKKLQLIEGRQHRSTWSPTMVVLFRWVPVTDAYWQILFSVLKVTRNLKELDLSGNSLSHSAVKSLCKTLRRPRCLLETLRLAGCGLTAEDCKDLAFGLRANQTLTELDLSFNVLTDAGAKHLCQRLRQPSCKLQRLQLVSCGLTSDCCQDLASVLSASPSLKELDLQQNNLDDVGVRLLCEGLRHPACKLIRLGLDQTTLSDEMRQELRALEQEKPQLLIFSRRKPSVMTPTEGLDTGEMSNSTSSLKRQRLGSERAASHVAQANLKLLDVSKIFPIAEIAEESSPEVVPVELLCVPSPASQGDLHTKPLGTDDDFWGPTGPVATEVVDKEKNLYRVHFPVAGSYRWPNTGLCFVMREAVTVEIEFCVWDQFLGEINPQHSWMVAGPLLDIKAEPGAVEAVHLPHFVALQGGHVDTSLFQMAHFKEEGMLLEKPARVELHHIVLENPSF
Sequence of NACHT, LRR and PYD domains-containing protein 1 (Q9C000 1213-1473 limits assumed): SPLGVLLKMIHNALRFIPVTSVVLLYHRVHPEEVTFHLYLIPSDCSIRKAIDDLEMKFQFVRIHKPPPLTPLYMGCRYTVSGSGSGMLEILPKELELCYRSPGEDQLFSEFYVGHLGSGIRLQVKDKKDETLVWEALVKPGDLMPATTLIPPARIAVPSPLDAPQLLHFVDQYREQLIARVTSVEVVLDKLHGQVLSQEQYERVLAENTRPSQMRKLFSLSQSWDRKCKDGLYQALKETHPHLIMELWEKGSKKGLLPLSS

## Cc1ccc2nc(N(CCCN(C)C)C(=O)c3sc4ccccc4c3Cl)sc2c1
[1]
  IC50: 16.9 µM (active)
[2]
  IC50: 6.52 µM (active)
[3]
  IC50: > 20 µM (inactive)

## COC(=O)Nc1nc(-c2ccccc2)c(C(=O)c2ccccc2)s1
[4]
  EC50: 1.04 µM (active)
[5]
  EC50: 0.479 µM (active)
[6]
  EC50: 1.19 µM (active)
[7]
  EC50: 0.676 µM (active)
[8]
  IC50: > 25 µM (inactive)
[9]
  EC50: 1.04 µM (active)
[10]
  EC50: < 0.1 µM (active)
[11]
  EC50: < 0.1 µM (active)
[12]
  EC50: 1.73 µM (active)
[13]
  EC50: 1.56 µM (active)
[14]
  EC50: 1.36 µM (active)

## Cc1ccc(N2CCN(c3ccc(NCc4nc5ccccc5n4C)cc3)CC2)cc1
[15]
  IC50: 75.6 µM (active)
[16]
  IC50: > 2.21 µM (active)
[17]
  IC50: 19.6 µM (not active)
[18]
  EC50: 1.06 µM (active)
